Data set [1] in a line: Drug uptake in human GLP-1R expressed in CHO cells coexpressing GFP assessed as drug internalization at 100 nM incubated for 30 mins by inverted microscopic analysis. Particulars: chinese hamster, 0.5 h, 0.1 µM. The class given is ADME, cell-based, Cricetulus griseus.
Data set [2] addresses T1, Glucagon-like peptide 1 receptor (Homo sapiens, UniProt P43220). Put plainly: Agonist activity at human GLP-1R expressed in CHO cells coexpressing GFP assessed as increase in glucagon-like peptide 1-induced receptor internalization at 10 uM by confocal fluorescence microscopy. The class given is functional, cell-based. The following applies: filed as agonist, time 30.0 min.

Data set [3] concerns the target T1, Glucagon-like peptide 1 receptor. Put plainly: Agonist activity at human GLP-1R expressed in CHO cells coexpressing GFP assessed as receptor internalization at 10 uM by confocal fluorescence microscopy. The following applies: filed as agonist. It is filed as functional, cell-based.
For data set [4] the target is unchanged.
The target is the same in data set [5]. This is another data set of the same source.
Description: Agonist activity at human GLP-1R assessed as increase in ERK1/2 phosphorylation at Thr202/Tyr204 residues incubated for 20 mins by AlphaLISA assay
The target is the same in data set [6]. This is another data set of the same source.
Description: Agonist activity at human GLP-1R expressed in CHO cells coexpressing beta-arrestin-2 assessed as increase in beta arrestin-2 recruitment incubated for 1 hr by chemiluminescence based pathHunter assay
The target is the same in data set [7]. This is another data set of the same source.
Description: Agonist activity at human GLP-1R expressed in CHO cells coexpressing beta-arrestin-2 assessed as reduction in cAMP accumulation incubated for 2 hrs under dark condition by LANCE cAMP assay
The target is the same in data set [8]. The source holds these as a separate data set.
Description: Agonist activity at human GLP-1R expressed in CHO cells coexpressing beta-arrestin-2 assessed as stimulation intracellular calcium mobilization measured after 180 secs by Fluo-3-AM dye based fluorescence assay
Data set [9] has as its system Mus musculus. Nature of the data set: Reduction in blood glucose level in intraperitoneal glucose injected C57BL/6J mouse by measuring glucose area under curve at 0.1 mg/kg, ip administered as single dose measured in 90 mins by glucose tolerance test. It is filed as functional, organism-based.
For data set [10], the target named is T1, Glucagon-like peptide 1 receptor. Nature of the data set: Receptor residence time at human GLP-1R expressed in CHO cells coexpressing beta-arrestin-2 assessed as inhibition of glucagon-like peptide 1-induced calcium mobilization by measuring half life at 100 uM preincubated for 30 mins followed by glucagon-like peptide 1 addition measured upto 4 hrs by calcium mobilization assay. It is filed as functional, cell-based. Particulars: filed as agonist. In general terms: Calcium assays in cells follow changes in intracellular calcium, usually with a dye or a luminescent sensor.

Data set [11] relates to Mus musculus. Nature of the data set: Induction of plasma insulin level in C57BL/6J mouse assessed as increase in insulin level at 0.1 mg/kg, ip administered as single dose measured at 10 mins in presence of glucose. It is filed as functional, organism-based.
Data set [12] has as its target T1, Glucagon-like peptide 1 receptor. Nature of the data set: Binding affinity to human GLP-1R expressed in CHO cells coexpressing beta-arrestin-2 assessed as fold increase in affinity incubated for 1 hr in presence of N-(tert-butyl)-6,7-dichloro-3-(methylsulfonyl)quinoxalin-2-amine by time-resolved fluorescence assay. It is filed as cell-based.
In data set [13] the test system is INS1. Put plainly: Induction of glucose-stimulated insulin secretion in rat INS1 cells measured after 1 to 16 hrs by HTRF assay. It is filed as functional, cell-based. The following applies: dose 10-1e+07 pM, time lower 1.0 hrs, time upper […], DDE = dose-dependent effect.
The subject of data set [14] is Mus musculus. Put plainly: Reduction in blood glucose level in intraperitoneal glucose injected C57BL/6J mouse at 0.1 mg/kg, ip administered as single dose measured 20 to 60 mins by glucose tolerance test. The class given is functional, organism-based. The following applies: time 20-60 min.

Six compounds from ChEMBL document CHEMBL5126621, “Modifying a Hydroxyl Patch in Glucagon-like Peptide 1 Produces Biased Agonists with Unique Signaling Profiles” (J Med Chem, 2022) can be followed below.

Active and inactive are the calls of the source. No cut-off for these calls is given here. Where a SMILES comes first, the peptide text is derived from it. [ ]: non-standard residue; d: D form. Abu = CC[C@H](N)C(=O)O Some results are limits rather than exact numbers.

T1 sequence (P43220 whole entry): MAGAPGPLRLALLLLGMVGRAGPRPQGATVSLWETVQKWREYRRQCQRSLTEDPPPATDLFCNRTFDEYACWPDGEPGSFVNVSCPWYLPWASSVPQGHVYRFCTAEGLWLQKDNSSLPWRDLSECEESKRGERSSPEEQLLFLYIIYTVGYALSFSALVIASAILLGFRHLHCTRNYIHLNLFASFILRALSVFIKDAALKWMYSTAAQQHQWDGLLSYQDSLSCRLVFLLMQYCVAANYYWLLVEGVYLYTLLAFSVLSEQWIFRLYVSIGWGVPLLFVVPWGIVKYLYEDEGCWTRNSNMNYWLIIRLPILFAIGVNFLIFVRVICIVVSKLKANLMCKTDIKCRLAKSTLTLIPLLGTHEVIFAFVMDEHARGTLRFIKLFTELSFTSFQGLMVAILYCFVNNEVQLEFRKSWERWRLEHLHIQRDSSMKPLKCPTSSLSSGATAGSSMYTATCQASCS

With `CC[C@H](C)[C@H](NC(=O)[C@H](Cc1ccccc1)NC(=O)[C@H](CCC(=O)O)NC(=O)[C@H](CCCCN)NC(=O)[C@H](C)NC(=O)[C@H](C)NC(=O)[C@H](CCC(N)=O)NC(=O)CNC(=O)[C@H](CCC(=O)O)NC(=O)[C@H](CC(C)C)NC(=O)[C@H](Cc1ccc(O)cc1)NC(=O)[C@H](CO)NC(=O)[C@H](CO)NC(=O)[C@@H](NC(=O)[C@H](CC(=O)O)NC(=O)[C@H](CO)NC(=O)[C@@H](NC(=O)[C@H](Cc1ccccc1)NC(=O)[C@@H](NC(=O)CNC(=O)[C@H](CCC(=O)O)NC(=O)[C@H](C)NC(=O)[C@@H](N)Cc1c[nH]cn1)[C@@H](C)O)[C@@H](C)O)C(C)C)C(=O)N[C@@H](C)C(=O)N[C@@H](Cc1c[nH]c2ccccc12)C(=O)N[C@@H](CC(C)C)C(=O)N[C@H](C(=O)N[C@@H](CCCCN)C(=O)NCC(=O)N[C@@H](CCCNC(=N)N)C(N)=O)C(C)C`, the Drug uptake result in [1] is “Active”.
In the case of `CC(C)(C)Nc1nc2cc(Cl)c(Cl)cc2nc1S(C)(=O)=O`, the result in data set [2] and in data set [3] was Active.
`CC[S+]([O-])c1nc(-c2cccc(OCc3ccccc3)c2)cc(C(F)(F)F)n1` (stereo unspecified): the outcome in data set [2] and in [3] was Active.
In general, IC50 refers to the point on the concentration scale where inhibition reaches its midpoint. Read a high IC50 as lower potency. In general, EC50 refers to the concentration giving half of the maximal effect. Low readings indicate higher potency in that assay, high ones lower potency in that assay. `CC[C@H](NC(=O)[C@H](CC)NC(=O)[C@@H](NC(=O)[C@H](CC(=O)O)NC(=O)[C@H](CC)NC(=O)[C@@H](NC(=O)[C@H](Cc1ccccc1)NC(=O)[C@@H](NC(=O)CNC(=O)[C@H](CCC(=O)O)NC(=O)[C@H](C)NC(=O)[C@@H](N)Cc1c[nH]cn1)C(C)C)[C@@H](C)O)C(C)C)C(=O)N[C@@H](Cc1ccc(O)cc1)C(=O)N[C@@H](CC(C)C)C(=O)N[C@@H](CCC(=O)O)C(=O)NCC(=O)N[C@@H](CCC(N)=O)C(=O)N[C@@H](C)C(=O)N[C@@H](C)C(=O)N[C@@H](CCCCN)C(=O)N[C@@H](CCC(=O)O)C(=O)N[C@@H](Cc1ccccc1)C(=O)N[C@H](C(=O)N[C@@H](C)C(=O)N[C@@H](Cc1c[nH]c2ccccc12)C(=O)N[C@@H](CC(C)C)C(=O)N[C@H](C(=O)N[C@@H](CCCCN)C(=O)NCC(=O)N[C@@H](CCCNC(=N)N)C(N)=O)C(C)C)[C@@H](C)CC` (H-HAEGVFT[Abu]DV[Abu][Abu]YLEGQAAKEFIAWLVKGR-NH2): the IC50 in data set [4] is 398 nM. Besides, the EC50 in data set [5] is > 10000 nM; in data set [6] it was > 10000 nM; in data set [7], 5.01 nM; in data set [8] it was > 100000 nM.
In data set [4], H-HAEGAFTADVAAYLEGQAAKEFIAWLVKGR-NH2 showed an IC50 of 251 nM. Moreover, the outcome in data set [9], in data set [11] and in data set [14] was Active. For the same compound, the EC50 in data set [5] is > 100000 nM; in data set [6], > 10000 nM; in [7], 0.0398 nM; in data set [8] it was > 100000 nM. The Drug uptake result in [1] is “Active”. In addition, the T1/2 in [10] worked out at 4 h. In addition, the fold change (FC) in data set [12] came to 10. Further, the Activity entry in data set [13] is “Dde”.
Compound H-HAEGTFTADVAAYLEGQAAKEFIAWLVKGR-NH2 showed an IC50 in data set [4] of 251 nM. In addition, the result in data set [9], in [11] and in data set [14] was Active. Also, the EC50 is > 10000 nM in [5], 158 nM in data set [6], 0.00501 nM in [7] and 794 nM in data set [8]. Besides, in data set [1], the Drug uptake result is “Active”.
